According to patent US10800752B2, “Substituted naphtho[2,3-b]furans as water-soluble prodrugs for preventing and/or treating cancer” (BOSTON BIOMEDICAL, INC., priority 2015, dated 2020):

Key:
[1] = Evaluation of a conversion rate to 2-acetylnaphtho[2,3-b]furan-4,9-dione in human plasma; type: in vitro ADME; conditions: 1 umol/L, 37° C.
How it was run: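 Compounds at 1 umol/L incubated at 37° C in human plasma, CD1 mouse plasma or pH 7.4 phosphate buffer, sampled up to 120 minutes. After acidified acetonitrile protein removal, parent loss and conversion to 2-acetylnaphtho[2,3-b]furan-4,9-dione measured by LC-MS (ESI positive).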

Solubility test = conditions: 50 mmol/L glycine buffer solution (pH 2.0), room temperature, 24 hours shaking
Protocol: A water-soluble prodrug was added into 50 mmol/L glycine buffer solution (pH 2.0). After shaking at room temperature for 24 hours, the mixture was filtered through a membrane filter, and then the filtrate was measured with HPLC.
The measurement condition of HPLC is as described below. HPLC condition column: Acquity UPLC BEH C18, 1.7 um, 50×2.1 mm

[2] = Evaluation of a conversion rate to 2-acetylnaphtho[2,3-b]furan-4,9-dione in CD1 mouse plasma; type: in vitro ADME; conditions: CD1 mouse plasma, 1 umol/L, 37° C.
How it was run: (§1)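 Compounds at 1 umol/L were incubated at 37° C in human plasma, CD1 mouse plasma or pH 7.4 phosphate buffer, sampled up to 120 minutes, acid/acetonitrile-deproteinised and analysed by LC-MS (ESI positive). Conversion (%) derived from the peak area ratio of the active form to phenytoin internal standard.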

[3] = Evaluation of a conversion rate to 2-acetylnaphtho[2,3-b]furan-4,9-dione in pH 7.4 phosphate buffer solution; type: physicochemical; conditions: 1 umol/L, 37° C.
How it was run: as §1

Solution stability test = type: physicochemical; conditions: for % Residual ratio: 25 umol/L
Protocol: For Example 6, Example 11, and Example 22, the stability in each pH was measured. Test compounds at a concentration of 25 umol/L in respective buffer solutions prepared at pH 2.0, 3.0, 5.0, 7.4, and 9.0 were allowed to stand at 25° C. After 0, 3, 6, 9, 12, and 24 hours, they were measured with HPLC.
The buffer solutions used at respective pHs are as described below. pH 2.0: 50 mmol/L glycine buffer solution pH 3.0: 50 mmol/L citrate buffer solution pH 5.0: 50 mmol/L citrate buffer solution pH 7.4: 50 mmol/L phosphate buffer solution pH 9.0: 50 mmol/L glycine buffer solution
The measurement condition of HPLC is as described below.
Column temperature: 40° C.
Mobile phase: A: 0.1% trifluoroacetic acid-containing water

[4] = Pharmacokinetics test, intravenous administration; conditions: for Plasma Compound Concentration: Activated form 1 in plasma, 9.6 mg/kg (i.v.)
Protocol: For water-soluble prodrugs described in the EXAMPLES, the concentration of 2-acetylnaphtho[2,3-b]furan-4,9-dione (Activated form 1) in plasma was measured. Animal species, an administration method, a method of making standard solutions, and a method of measuring the concentration in plasma are as described below.
Animal: Seven-week-aged male CD1 (ICR) mice were used as an experimental animal.
Administration method: A test substance was weighed, and then dissolved in 50 mmol/L glycine buffered saline (pH 2.0) to produce an administration solution. The body weight of a mouse was measured, and the prepared administration solution was intravenously administered.
Blood collecting method: Heparin was added to a blood-collecting vessel, and blood was collected from a mouse. To the obtained blood, 46% of Citric acid was added in 1% volume. It was then centrifuged to obtain plasma. To the collected plasma, 1 mol/L HCl was added in 10% volume to produce a plasma sample. A sample obtained by adding 10% volume of 1 mol/L HCl to blank plasma was used as a blank sample.
Making of a standard solution: One mg of a test sample was weighed, and dissolved in 10 mL of acetonitrile using a measuring flask to make a standard solution of 100 ug/mL.
Measurement of the concentration in plasma: One hundred ug/mL of the standard solution was diluted in 50% acetonitrile solution to make calibration curve samples of target concentrations. Twenty uL of a blank sample was added to 18 uL of the calibration curve sample to make a plasma calibration curve sample. Eighteen uL of 50% acetonitrile solution was added to 20 uL of the administered plasma sample to make a sample for plasma analysis. One hundred uL of acetonitrile (containing 1% volume of 10 mol/L HCl) containing an internal standard was added to the plasma calibration curve sample and the sample for plasma analysis, respectively. It should be noted that phenytoin was used as the internal standard and its concentration was prepared in 100 nmol/L. 10 uL of each sample was analyzed with LC-MS. A calibration curve was made from a value (peak ratio) of the peak area of a test substance in MS divided by the peak area of the internal standard, and the concentrations of plasma calibration curve samples. The concentration in a sample was calculated from the peak ratio of each sample and the calibration curve.

CC(=O)c1cc2c(OC(=O)NC[C@H](N)C(=O)O)c3ccccc3c(OC(=O)NC[C@H](N)C(=O)O)c2o1.Cl.Cl [Example 6]
% Measurement value of test compound (decrease rate) ([1]; Human plasma, incubation time 120 min): 0%
% Measurement value of test compound (decrease rate) ([1]; human plasma, incubation time 0 min): 100%
% Measurement value of test compound (decrease rate) ([1]; human plasma, incubation time 5 min): 0%
% Measurement value of test compound (decrease rate) ([1]; human plasma, incubation time 10 min): 0%
% Measurement value of test compound (decrease rate) ([1]; human plasma, incubation time 30 min): 0%
% Measurement value of test compound (decrease rate) ([1]; human plasma, incubation time 60 min): 0%
Solubility in pH 2.0 buffer solution (Solubility test): 2.8 mg/mL
% Measurement value of test compound (decrease rate) ([2]; incubation time 0 min): 100%
% Measurement value of test compound (decrease rate) ([2]; incubation time 5 min): 0%
% Measurement value of test compound (decrease rate) ([2]; incubation time 10 min): 0%
% Measurement value of test compound (decrease rate) ([2]; incubation time 30 min): 0%
% Measurement value of test compound (decrease rate) ([2]; incubation time 60 min): 0%
% Measurement value of test compound (decrease rate) ([2]; incubation time 120 min): 0%
% Measurement value of test compound (decrease rate) ([3]; Phosphate buffer solution (pH 7.4), incubation time 120 min): 0%
% Measurement value of test compound (decrease rate) ([3]; phosphate buffer solution (pH 7.4), incubation time 0 min): 100%
% Measurement value of test compound (decrease rate) ([3]; phosphate buffer solution (pH 7.4), incubation time 5 min): 0%
% Measurement value of test compound (decrease rate) ([3]; phosphate buffer solution (pH 7.4), incubation time 10 min): 0%
% Measurement value of test compound (decrease rate) ([3]; phosphate buffer solution (pH 7.4), incubation time 30 min): 0%
% Measurement value of test compound (decrease rate) ([3]; phosphate buffer solution (pH 7.4), incubation time 60 min): 0%
stability in solution (in words) (Solution stability test; pH 2.0, 25° C.): very stable
% Residual ratio (Solution stability test; pH 2.0, 25° C., 0 hr): 100%
% Residual ratio (Solution stability test; pH 2.0, 25° C., 3 hr): 100%
% Residual ratio (Solution stability test; pH 2.0, 25° C., 6 hr): 100%
% Residual ratio (Solution stability test; pH 2.0, 25° C., 9 hr): 100%
% Residual ratio (Solution stability test; pH 2.0, 25° C., 12 hr): 100%
% Residual ratio (Solution stability test; pH 2.0, 25° C., 24 hr): 99.8%
stability in solution (in words) (Solution stability test; pH 3.0, 25° C.): sufficient stability
% Residual ratio (Solution stability test; pH 3.0, 25° C., 0 hr): 100%
% Residual ratio (Solution stability test; pH 3.0, 25° C., 3 hr): 99.0%
% Residual ratio (Solution stability test; pH 3.0, 25° C., 6 hr): 98.2%
% Residual ratio (Solution stability test; pH 3.0, 25° C., 9 hr): 97.5%
% Residual ratio (Solution stability test; pH 3.0, 25° C., 12 hr): 96.6%
% Residual ratio (Solution stability test; pH 3.0, 25° C., 24 hr): 93.6%
% Residual ratio (Solution stability test; pH 5.0, 25° C., 0 hr): 100%
% Residual ratio (Solution stability test; pH 5.0, 25° C., 3 hr): 27.3%
% Residual ratio (Solution stability test; pH 5.0, 25° C., 6 hr): 10.8%
% Residual ratio (Solution stability test; pH 5.0, 25° C., 9 hr): 3.6%
% Residual ratio (Solution stability test; pH 5.0, 25° C., 12 hr): 0%
% Residual ratio (Solution stability test; pH 5.0, 25° C., 24 hr): 0%
% Residual ratio (Solution stability test; pH 7.4, 25° C., 0 hr): 100%
% Residual ratio (Solution stability test; pH 7.4, 25° C., 3 hr): 0%
% Residual ratio (Solution stability test; pH 7.4, 25° C., 6 hr): 0%
% Residual ratio (Solution stability test; pH 7.4, 25° C., 9 hr): 0%
% Residual ratio (Solution stability test; pH 7.4, 25° C., 12 hr): 0%
% Residual ratio (Solution stability test; pH 7.4, 25° C., 24 hr): 0%
% Residual ratio (Solution stability test; pH 9.0, 25° C., 0 hr): 100%
% Residual ratio (Solution stability test; pH 9.0, 25° C., 3 hr): 0%
% Residual ratio (Solution stability test; pH 9.0, 25° C., 6 hr): 0%
% Residual ratio (Solution stability test; pH 9.0, 25° C., 9 hr): 0%
% Residual ratio (Solution stability test; pH 9.0, 25° C., 12 hr): 0%
% Residual ratio (Solution stability test; pH 9.0, 25° C., 24 hr): 0%
Plasma Compound Concentration ([4]; 0.083 hr, animal 1): 4950 nM
Plasma Compound Concentration ([4]; 0.083 hr, animal 2): 5870 nM
Plasma Compound Concentration ([4]; 0.083 hr, animal 3): 5790 nM
Plasma Compound Concentration ([4]; 0.083 hr, mean): 5540 nM
Plasma Compound Concentration ([4]; 0.5 hr, animal 1): 1170 nM
Plasma Compound Concentration ([4]; 0.5 hr, animal 2): 1070 nM
Plasma Compound Concentration ([4]; 0.5 hr, animal 3): 1660 nM
Plasma Compound Concentration ([4]; 0.5 hr, mean): 1300 nM
Plasma Compound Concentration ([4]; 1.0 hr, animal 1): 530 nM
Plasma Compound Concentration ([4]; 1.0 hr, animal 2): 280 nM
Plasma Compound Concentration ([4]; 1.0 hr, animal 3): 380 nM
Plasma Compound Concentration ([4]; 1.0 hr, mean): 400 nM
Plasma Compound Concentration ([4]; 2.0 hr, animal 1): 250 nM
Plasma Compound Concentration ([4]; 2.0 hr, animal 2): 500 nM
Plasma Compound Concentration ([4]; 2.0 hr, animal 3): 410 nM
Plasma Compound Concentration ([4]; 2.0 hr, mean): 390 nM
production of 2-acetylnaphtho[2,3-b]furan-4,9-dione (Activated form 1) (in words) ([4]; intravenously administered to mice): rapidly produced
